# Results as given in US4820707A, “2,6-piperazinedione compounds” (ADIR Et Cie, priority 1986, dated 1989).
# Assays:
# Assay type in all cases: in vivo
# [1] = Anxiolytic activity by the four-plates test; conditions: mice; for change in vivo at 5 mg/kg: Mus musculus, ip, i.p., 5 mg.kg^-1, read-out: % increase in the responses (transitions)
# Method: The anxiolytic activity of the compounds of the general formula I was investigated in mice according to the method of Aron Simon Larousse and Boissier described in Neuropharmacology (1971) 10 p. 459-469). After treatment of the animals by means of different doses of the compounds of the invention administered intraperitoneally or orally, the increase in the percentage of transitions during the exploration of the base of the test cage, in the presence of electric shocks, was assessed.
# [2] = Inhibition of aggression in isolated and bulbectomized rats
# Method: The inhibition of aggression was assessed according to the method described by Vergnes and Karli in C.R. Soc. Biol. 1963, 157, p. 1061. The effect on the aggression is assessed in terms of the percentage of animals which became non-killers after treatment.
# [3] = Inhibition of isolation-induced aggression in mice; conditions: Mus musculus, ip, read-out: Inhibitory ED50 (effective dose inhibiting 50% of the aggressive animals)
# Description: The compounds of general formula I inhibit the attacking behavior of mice rendered aggressive by isolation according to the method described by Yen, Stanger and Millman in Arch. Int. Pharmacodyn. 1959, 123, p. 179-185.
# [4] = Anxiolytic activity by the "staircase" test; design: key to % variation in the steps climbed: NS: not significant; conditions: rats
# Description: The anxiolytic activity of the compounds of the invention was investigated in rats according to the method described by Thiebot, Soubrie and Boissier in J. Pharmacol. 1976, 7, (1), p. 87-102. In this test, behavior involving rearing movements is associated with a state of distress of the animal. The number of steps climbed represents the normal exploratory behavior of the rat introduced into the enclosure. Normally, an efficacious anxiolytic compound should decrease, during the test which lasts 3 minutes, the number of rearing movements without modifying the number of steps climbed, or on the contrary should increase this latter parameter.
# [5] = Anxiolytic activity by the Geller-Seifter test; conditions: rats, i.p., p<0.05
# Method: The anxiolytic activity of the compounds of the present invention was also assessed in rats with the Geller-Seifter test described by Geller, Kulac and Seifter in Psychopharmacologia, 1962, 3, p. 374-375.
# An increase related exclusively to the levels of the punished responses determines the existence of an authentic anxiolytic effect.
# [6] = Anxiolytic activity by MacMillan's conflict test; conditions: rats, i.p., 2,5 mg.kg^-1, vs physiological saline
# Description: In these conditioning experiments which operate in the presence of a food reward, performed in rats according to the method described by MacMillan in Fed. Proceedings, 1975, 34, (9), p. 1870-1879, two parameters in the animal's behavioral responses are considered. The first parameter is the variation in the level of punished responses, in the presence of an electric shock, under the influence of the treatment in comparison with the level of punished responses under the influence of physiological saline. The second parameter is the variation in the level of unpunished responses, without an electric shock, under the influence of the same treatment, in comparison with the level of unpunished responses when physiological saline is administered. A specific anxiolytic effect is established when, after the administration of a substance, the level of only the punished responses is increased.
# [7] = Inhibition of the active conditioned avoidance response in rats; conditions: i.p.
# Description: The results obtained with the compounds of general formula I during the various experiments employing the method described by Courvoisier et al. in Arch. Int. Pharmacodyn., 1953, 92, p. 305-361 and by Janssen et al. in Arzneim, Forsch, 1965, 15, p.
compound,measurement,setting,value
"O=C1CN(Cc2ccccc2F)CC(=O)N1CCCN1CCN(c2cccc(C(F)(F)F)c2)CC1 [Example 1, 4-(2-Fluorobenzyl)-1-{3-[1-(3-trifluoromethylphenyl)-4-piperazinyl]propyl}-2,6-piperazinedione dimandelate]",change in vivo at 5 mg/kg,[1],65%
same,% increase in the responses,"[1]; p.o., 50 mg.kg^-1",64%
same,% of non-killer animals,"[2]; i.p., 25 mg.kg^-1",45%
same,ED50,[3],7.64 mg/kg
same,% variation in the rearing movements,"[4]; i.p., 10 mg.kg^-1",-39%
same,% variation in the steps climbed,"[4]; i.p., 10 mg.kg^-1",NS
same,% variation in the rearing movements,"[4]; i.p., 20 mg.kg^-1",-64%
same,% variation in the steps climbed,"[4]; i.p., 20 mg.kg^-1",NS
same,% variation in the rearing movements,"[4]; i.p., 2,5 mg.kg^-1",-20%
same,% variation in the steps climbed,"[4]; i.p., 2,5 mg.kg^-1",NS
same,increase in the punished responses,[5]; 2.5 mg.kg^-1,39%
same,% variation in the unpunished responses,[6]; NS (not significant),+18%
same,% variation in the punished responses,[6]; S (significant),+49%
"O=C1CN(Cc2ccccc2F)CC(=O)N1CCCN1CCN(c2cccc(Cl)c2)CC1 [Example 2, 4-(2-Fluorobenzyl)-1-{3-8 1-(3-chlorophenyl)-4-piperazinyl]propyl}-2,6-piperazinedione dimandelate]",increase in the punished responses,[5]; 5.0 mg.kg^-1,65%
"O=C1CN(Cc2ccccc2)CC(=O)N1CCCN1CCN(c2ccc(F)cc2)CC1 [Example 9, 4-Benzyl-1-{3-[1-(4-fluorophenyl)-4-piperazinyl]propyl}-2,6-piperazinedioneoxalate]",% of non-killer animals,"[2]; i.p., 25 mg.kg^-1",60%
same,ED50,[3],8.6 mg/kg
"Cc1ccccc1N1CCN(CCCN2C(=O)CN(Cc3ccccn3)CC2=O)CC1.Cl.Cl.Cl [Example 19, 4-(2-Pyridylmethyl)-1-{3-[1-(2-methylphenyl)-4-piperazinyl]propyl}-2,6-piperazinedione trihydrochloride]",ED50,[3],6.78 mg/kg
same,% ICAR (percentage inhibition of the conditioned avoidance response),[7]; 20 mg.kg^-1,26%
same,% ICAR (percentage inhibition of the conditioned avoidance response),[7]; 40 mg.kg^-1,73%
"O=C(O)C(=O)O.O=C(O)C(=O)O.O=C1CN(Cc2ccccn2)CC(=O)N1CCCN1CCN(c2cccc(C(F)(F)F)c2)CC1 [Example 21, 4-(2-Pyridylmethyl)-1-{3-[1-(3-trifluoromethylphenyl)-4-piperazinyl]propyl}-2,6-piperazinedione dioxalate]",change in vivo at 5 mg/kg,[1],69%
same,% of non-killer animals,"[2]; i.p., 12,5 mg.kg^-1",73%
same,ED50,[3],11.1 mg/kg
